Measurements from patent US4468403A, “Analgesic substituted piperidylidene-2-sulfon(cyan)amide derivatives” (priority 1982, dated 1984).
Where two headings read alike, the source gives them in different places.

Type: in vivo, male Swiss albino mice
Conditions: for Analgesic action, inhibition action on phenylquinone writhing, % inhibition / Analgesic action, inhibition action on phenylquinone writhing: dose giving 50 % inhibition: subcutaneous; for Analgesic action, inhibition action on phenylquinone writhing: dose giving 50 % inhibition: 30 min before phenyl-p-benzoquinone, dose with 50 % inhibition; for Analgesic (agonist) activity, in words: phenylquinone writhing, mice; for % Inhibn, control (single agent) in antagonist study: alone
Description: The percent change is calculated according to the following equation: % change=100- (no. of writhes in treated group/no. of writhes in control group)×100.

[1] = at the dose listed for the substance under E1

Row | SMILES | Analgesic action, inhibition action on phenylquinone writhing: dose giving 50 % inhibition | Analgesic action, inhibition action on phenylquinone writhing, % inhibition [1] | also measured
1 | O=S(=O)(N=C1CCCCN1CC1CCC1)c1cccnc1 [Compound W-25, 1-Cyclobutylmethylpiperidylidene-2-(3-pyridyl)sulfonamide] | – | – | Analgesic action, inhibition action on phenylquinone writhing, % inhibition (dose 0.20 mg/kg): 69%
2 | CN1CCCCC1=NS(C)(=O)=O [Compound W-1, 1-Methylpiperidylidene-2-methanesulfonamide] | 108.0 mg/kg | 50% | –
3 | C/C=C/N1CCCCC1=NS(=O)(=O)c1ccc(Cl)cc1 [Compound W-32, E-1-(1-Propenyl)piperidylidene-2-(4-chlorophenyl)sulfonamide] | 0.013 mg/kg | 50% | –
4 | CC(C)CN1CCCCC1=NS(=O)(=O)c1ccc(Cl)cc1 [Compound W-29, 1-Isobutylpiperidylidene-2-(4-chlorophenyl)sulfonamide] | 2.0 mg/kg | – | Analgesic action, inhibition action on phenylquinone writhing, % inhibition (dose 2.0 mg/kg (Table 3)): 50%
5 | Cc1ccc(S(=O)(=O)N=C2CCCCN2C)cc1 [Compound W-5, 1-Methylpiperidylidene-2-(4-methylphenyl)sulfonamide] | 2.4 mg/kg | 50% | –
6 | CN1CCCCC1=NC#N [Compound W-13, 1-Methylpiperidylidene-2-cyanamide] | 6.0 mg/kg | 50% | –
7 | CCC(=O)O[C@](Cc1ccccc1)(c1ccccc1)[C@H](C)CN(C)C [Dextropropoxyphene (TM), reference compound] | 56.0 mg/kg | 50% | –
8 | CC(C)CN1CCCCC1=NS(=O)(=O)c1cccnc1 [Compound W-31, 1-Isobutylpiperidylidene-2-(3-pyridyl)sulfonamide] | – | – | Analgesic action, inhibition action on phenylquinone writhing, % inhibition (dose 2.0 mg/kg (Table 3)): 65%
9 | CN1CCCCC1=NS(=O)(=O)c1ccccc1N [Compound W-11, 1-Methylpiperidylidene-2-(2-aminophenyl)sulfonamide] | 0.00024 mg/kg | 50% | Analgesic (agonist) activity, in words: active analgesics, being comparable to morphine sulfate
10 | CCCN1CCCCC1=NS(=O)(=O)c1cccnc1 [Compound W-28, 1-n-Propylpiperidylidene-2-(3-pyridyl)sulfonamide] | – | – | Analgesic action, inhibition action on phenylquinone writhing, % inhibition (dose 2.0 mg/kg (Table 3)): 82%
11 | Nc1ccc(S(=O)(=O)N=C2CCCCN2CC2CC2)cc1 [Compound W-21, 1-Cyclopropylmethylpiperidylidene-2-(4-aminophenyl)sulfonamide] | – | – | Analgesic action, inhibition action on phenylquinone writhing, % inhibition (dose 2.0 mg/kg (Table 3)): 49%
12 | O=S(=O)(N=C1CCCCN1CC1CC1)c1cccnc1 [Compound W-22, 1-Cyclopropylmethylpiperidylidene-2-(3-pyridyl)sulfonamide] | 2.0 mg/kg | – | Analgesic action, inhibition action on phenylquinone writhing, % inhibition (dose 2.0 mg/kg (Table 3)): 50%
13 | Nc1ccc(S(=O)(=O)N=C2CCCCN2CC2CCC2)cc1 [Compound W-24, 1-Cyclobutylmethylpiperidylidene-2-(4-aminophenyl)sulfonamide] | – | – | Analgesic action, inhibition action on phenylquinone writhing, % inhibition (dose 0.20 mg/kg): 61%
14 | O=[N+]([O-])c1ccc(CCN2CCCCC2=NS(=O)(=O)c2ccc(Cl)cc2)cc1 [Compound W-18, 1-(4-Nitrophenylethyl)piperidylidene-2-(4-chlorophenyl)sulfonamide] | – | 50% | –
15 | CN1CCCCC1=NS(=O)(=O)c1cccc(N)c1 [Compound W-10, 1-Methylpiperidylidene-2-(3-aminophenyl)sulfonamide] | 0.0017 mg/kg | 50% | Analgesic (agonist) activity, in words: active analgesics, being comparable to morphine sulfate
16 | CCCN1CCCCC1=NS(=O)(=O)c1ccc(N)cc1 [Compound W-27, 1-n-Propylpiperidylidene-2-(4-aminophenyl)sulfonamide] | – | – | Analgesic action, inhibition action on phenylquinone writhing, % inhibition (dose 2.0 mg/kg (Table 3)): 59%
17 | O=S(=O)(N=C1CCCCN1CC1CCC1)c1ccc(Cl)cc1 [Compound W-23, 1-Cyclobutylmethylpiperidylidene-2-(4-chlorophenyl)sulfonamide] | 0.01 mg/kg | 50% | –
18 | O=S(=O)(N=C1CCCCN1CCc1ccccc1)c1cccnc1 [Compound W-17, 1-Phenylethylpiperidylidene-2-(3-pyridyl)sulfonamide] | – | – | Analgesic (agonist) activity, in words: active analgesics, being comparable to morphine sulfate; Analgesic action, inhibition action on phenylquinone writhing, % inhibition (dose 0.20 mg/kg): 65%
19 | CN1CCCCC1=NS(=O)(=O)c1ccccc1[N+](=O)[O-] [Compound W-8, 1-Methylpiperidylidene-2-(2-nitrophenyl)sulfonamide] | 0.0018 mg/kg | 50% | Analgesic (agonist) activity, in words: active analgesics, being comparable to morphine sulfate
20 | CN1CCCCC1=NS(=O)(=O)c1cccnc1 [Compound W-14, 1-Methylpiperidylidene-2-(3-pyridyl)sulfonamide] | 0.00038 mg/kg | 50% | Analgesic (agonist) activity, in words: active analgesics, being comparable to morphine sulfate
21 | CC(=O)Nc1ccc(S(=O)(=O)N=C2CCCCN2C)cc1 [Compound W-12, 1-Methylpiperidylidene-2-(4-acetamidophenyl)sulfonamide] | 1.2 mg/kg | 50% | –
22 | CN1CCCCC1=NS(=O)(=O)c1ccc(Cl)cc1 [Compound W-3, 1-Methylpiperidylidene-2-(4-chlorophenyl)sulfonamide] | 0.0038 mg/kg | 50% | % Inhibn, control (single agent) in antagonist study (2.0 mg/kg sc): 97%; % Inhibn, control (single agent) in antagonist study (5.0 mg/kg sc): 100%; Analgesic (agonist) activity, in words: active analgesics, being comparable to morphine sulfate
23 | CC(C)CN1CCCCC1=NS(=O)(=O)c1ccc(N)cc1 [Compound W-30, 1-Isobutylpiperidylidene-2-(4-aminophenyl)sulfonamide] | – | – | Analgesic action, inhibition action on phenylquinone writhing, % inhibition (dose 2.0 mg/kg (Table 3)): 59%
24 | CN1CCCCC1=NS(=O)(=O)c1ccccc1 [Compound W-2, 1-Methylpiperidylidene-2-benzenesulfonamide] | 68.0 mg/kg | 50% | –
